One experiment deals with T1, tropomyosin (Rattus norvegicus, UniProt P04692).
T1 construct: Rat myofibrillar preparations, as described in [7], were obtained from frozen ventricles (Pel Freez Biologicals); tissue Pel Freez Biologicals; host or cells: myofibrils from frozen rat ventricles
Description: Gel shift assay, reducing/non-reducing western blot of cardiac myofibrils. Particulars: non-reducing; lost with 5 mM DTT. It is filed as biochemical. On the procedure: FIG. 4. Validation and characterizations of HNO modifications. 1 μg of rat cardiac myofibrils treated with HNO donors or control compounds were separated under reducing or nonreducing conditions and western blots probed for candidate proteins tropomyosin, actin, myosin heavy chain, myosin light chain 1 (n=4). […] Silver stained gel analysis indicated a protein band with […] gel mobility that was lost with DTT.
FIG. 5. Evaluation of the interaction between actin and tropomyosin with NCA treatment. Purified rabbit skeletal tropomyosin (0.03 μg) and isolated rat cardiac myofibrils (1 μg) were treated with NCA or AS and evaluated by 1D non-reducing western blot probing for tropomyosin (A) and actin (B) (n=3). […] (C) Fluorescent DIGE analysis of samples from A and B independent labeled indicates NCA specific band (green) above purified TM (blue) and below AS treated myofibrils (red) (n=3). (D) MS analysis of the same gel region identified both tropomyosin and actin in non-reduced lane but not with DTT treatment (n=2).
Gel shift assay. 10 μg of rat myofibrils/treatment were diluted to 0.5 μg/μl in HEN including 0.1% (w/v) SDS and exposed to a treatment for 20 min at 37° C. Samples were diluted to 0.1 ug/ul in 1×LSD sample buffer, treated with 0, 5 or 100 mM DTT and separated by SDS PAGE. Proteins were silver stained or transferred to nitrocellulose and immunoblotted with primary antibodies for tropomyosin sarcomeric (CH1, Sigma-Aldrich Co., St. Louis, Mo., USA), actin (AC-40, Sigma-Aldrich Co., St. Louis, Mo., USA), myosin light chain 1 (MLM527, Abcam, Cambridge, Mass., USA) or myosin heavy chain (3-48, Abcam, Cambridge, Mass., USA). For some silver stained gel bands of interest in-gel digestion was done following the protocol outlined in Shevchenko et al.. Gel slices of interest were excised from the gels cut into 1 mm^3 pieces. Silver stained gel pieces were destained in 1:1(v/v) 30 mM Potassium ferricyanide and 100 mM Sodium thiosulfate and wash three times with ddH2O. Gel pieces were dehydrated in 100% acetonitrile and reswelled in 10 mM DTT and incubated at 55° C. for 1 hour. After the DTT solution was removed, a solution of 55 mM iodoacetimide was added and gel slices were incubated at room temperature protected from light. Gel slices were then washed 3 times with 50% (v/v) ACN, 25 mM (NH4)HCO3 and then fully dehydrated in 100% ACN and dried in a speed vac. Gel pieces were reswelled in a 12.5 ng/μL trypsin (Promega, Madison Wis. USA) solution containing 25 mM (NH4)HCO3 and incubated at 37° C. for >16 hours. Digested peptides were extracted by addition of 5% (v/v) formic acid and incubation for 15 min followed by addition of an equal volume of 100% ACN and 15 min incubation, this step was repeated and the extracts were combined. […]
In general terms: In EMSA bound probe runs differently from free probe, usually more slowly.

The next experiment has as its system skinned trabeculae. Description: Force-[Ca2+] relation in skinned trabeculae. It is filed as cell-based, rat. Conditions: after skinning; NCA. As to the method:
FIG. 2. […] (A) Steady-state force-[Ca^2+]i relationship in intact trabeculae before and after NCA (20 μmol/L). n=5. See text for details. (B) Force-[Ca^2+] relation in skinned trabeculae before and after NCA (n=6). […] The muscles were treated with DTT (5 mM) for 10 min after 1st force-[Ca^2+] was obtained in the presence of NCA alone, and a second force-[Ca^2+] relation was obtained in the presence of NCA+DTT. n=3. (D) For comparison, steady-state force-[Ca^2+]i relationship in intact trabeculae before and after AS (500 μmol/L). n=5.
To further test this hypothesis, steady-state force-[Ca^2+]i relations were obtained by tetanizing the muscles in the presence of ryanodine.

T1 sequence (P04692 whole entry): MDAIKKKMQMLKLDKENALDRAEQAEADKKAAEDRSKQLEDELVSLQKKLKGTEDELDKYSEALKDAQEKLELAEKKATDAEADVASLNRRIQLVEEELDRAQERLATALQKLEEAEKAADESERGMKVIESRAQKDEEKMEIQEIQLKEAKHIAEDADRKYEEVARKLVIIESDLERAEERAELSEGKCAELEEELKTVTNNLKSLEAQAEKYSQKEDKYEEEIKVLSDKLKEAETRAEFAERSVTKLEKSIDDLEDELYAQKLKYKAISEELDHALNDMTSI

As to `CC(=O)OC1(N=O)CCCCC1` [NCA, 1-nitrosocyclohexylacetate], the “tropomyosin molecular weight shift” value at tropomyosin was “higher molecular weight species that was specific for NCA treatment”. In addition, the Hill in the experiment with skinned trabeculae is reported as 2.39±1.02.

The values are drawn from patent publication US20120231482A1, “METHOD, KIT OR DIAGNOSTIC FOR THE DETECTION OF REAGENTS WHICH INDUCE ALTERED CONTRACTILITY” (THE JOHNS HOPKINS UNIVERSITY, priority 2009, published 2012).
